Data as given in patent US20260184663A1, “INDENE COMPOUNDS, PHARMACEUTICAL COMPOSITIONS THEREOF, AND THEIR THERAPEUTIC APPLICATIONS” (NucMito Pharmaceuticals co. Ltd., priority 2022, published 2026).

Columns and labels:
Format in all cases: cell-based
[1] = tested on: A549 (lung adenocarcinoma); test: Antiproliferative activity (CCK-8 cell viability), A549; conditions: Homo sapiens, 72 h, read-out: Antiproliferative activity in cancerous cells, A549 (inhibition of cell growth); for inhibition at 3.3 µM: Compound concentration: 3.3 μM; for inhibition at 10 µM: Compound concentration: 10 μM; for inhibition at 30 µM: Compound concentration: 30 μM
Outline: (§1)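 Cells grown in DMEM (HepG2, SW480), MEM (HeLa) or F-12K (A549), each with 10% FBS, then exposed to compound at 3.3, 10 or 30 μM for 72 h at 37 °C. CCK-8 absorbance at 450 nm; viability expressed as percent of DMSO-treated cells, graded as growth inhibition bands.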

HepG2 (liver cancer) = test: Antiproliferative activity (CCK-8 cell viability), HepG2; conditions: Homo sapiens, 72 h, read-out: Antiproliferative activity in cancerous cells, HepG2 (inhibition of cell growth); for inhibition at 3.3 µM: Compound concentration: 3.3 μM; for inhibition at 10 µM: Compound concentration: 10 μM; for inhibition at 30 µM: Compound concentration: 30 μM
Outline: as §1

HeLa (cervical cancer) = test: Antiproliferative activity (CCK-8 cell viability), HeLa; conditions: Homo sapiens, 72 h, read-out: Antiproliferative activity in cancerous cells, HELA (inhibition of cell growth); for inhibition at 3.3 µM: Compound concentration: 3.3 μM; for inhibition at 10 µM: Compound concentration: 10 μM; for inhibition at 30 µM: Compound concentration: 30 μM
Outline: as §1

[2] = tested on: B16F10 (malignant melanoma); test: Antiproliferative activity (CCK-8 cell viability), B16F10; conditions: Mus musculus, 72 h, read-out: Antiproliferative activity in cancerous cells, B16F10 (inhibition of cell growth); for inhibition at 3.3 µM: B16-F10, Compound concentration: 3.3 μM; for inhibition at 10 µM: B16-F10, Compound concentration: 10 μM; for inhibition at 30 µM: B16-F10, Compound concentration: 30 μM
Outline: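 B16F10 melanoma cells grown in DMEM with 10% FBS were plated in 96-well plates at 2,000-5,000 cells/well. After attachment they were exposed to compound in medium for 72 h at 37° C. CCK-8 solution (10 μL) was then added, and after 4 h at 37° C absorbance was read at 450 nm.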

[3] = tested on: A431 (epidermoid carcinoma); test: Antiproliferative activity (CCK-8 cell viability), A431; conditions: Homo sapiens, 72 h, read-out: Antiproliferative activity in cancerous cells, A431 (inhibition of cell growth); for inhibition at 3.3 µM: A-431, Compound concentration: 3.3 μM; for inhibition at 10 µM: A-431, Compound concentration: 10 μM; for inhibition at 30 µM: A-431, Compound concentration: 30 μM
Outline: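 A431 epidermoid carcinoma cells grown in DMEM with 10% FBS were plated at 2,000-5,000 cells/well in 96-well plates. After attachment they were exposed to compound at 3.3 μM, 10 μM, or 30 μM for 72 h at 37° C. Viability was then assessed by CCK-8 against DMSO vehicle-treated wells.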

[4] = tested on: alpha-smooth muscle actin (α-SMA); test: Inhibition of TGF-β induced expression of alpha-smooth muscle actin (α-SMA) in CFSC cells (western blot); conditions: compound at 10 μM, TGF-β (10 ng/mL), 24 hours, band intensity vs TGF-β only
Outline: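 CFSC hepatic stellate cells in serum-free DMEM treated 24 h at 37 °C with compound at 10 μM plus TGF-β (10 ng/mL). α-SMA measured by Western blot with β-actin, ECL detection, densitometry. Percent inhibition is decrease in band intensity versus TGF-β-only cells.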

[5] = tested on: MDA-MB-231 (breast cancer); test: Antiproliferative activity (CCK-8 cell viability), MDA-MB-231; conditions: Homo sapiens, 72 h, read-out: Antiproliferative activity in cancerous cells, MDA-MB-231 (inhibition of cell growth); for inhibition at 3.3 µM: Compound concentration: 3.3 μM; for inhibition at 10 µM: Compound concentration: 10 μM; for inhibition at 30 µM: Compound concentration: 30 μM
Outline: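 MDA-MB-231 breast cancer cells, grown in DMEM with 10% FBS, were plated in 96-well plates at 2,000-5,000 cells/well. Once attached, they were exposed to compound and incubated at 37° C. for 72 h. Viability was then measured with CCK-8 (10 μL per well, 4 h at 37° C.) by absorbance at 450 nm, relative to DMSO vehicle wells.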

SW480 (colon cancer) = test: Antiproliferative activity (CCK-8 cell viability), SW480; conditions: Homo sapiens, 72 h, read-out: Antiproliferative activity in cancerous cells, SW480 (inhibition of cell growth); for inhibition at 3.3 µM: Compound concentration: 3.3 μM; for inhibition at 10 µM: Compound concentration: 10 μM; for inhibition at 30 µM: Compound concentration: 30 μM
Outline: as §1

SMILES | inhibition at 3.3 µM [1] | inhibition at 10 µM [1] | inhibition at 30 µM [1] | inhibition at 3.3 µM (HepG2 (liver cancer)) | inhibition at 10 µM (HepG2 (liver cancer)) | inhibition at 30 µM (HepG2 (liver cancer)) | inhibition at 3.3 µM (HeLa (cervical cancer)) | inhibition at 10 µM (HeLa (cervical cancer)) | inhibition at 30 µM (HeLa (cervical cancer)) | inhibition at 3.3 µM [2] | inhibition at 10 µM [2] | inhibition at 30 µM [2] | inhibition at 3.3 µM [3] | inhibition at 10 µM [3] | inhibition at 30 µM [3] | inhibition at 10 µM [4] | inhibition at 3.3 µM [5] | inhibition at 10 µM [5] | inhibition at 30 µM [5] | inhibition at 3.3 µM (SW480 (colon cancer)) | further results
CC1=C(CC(=O)O)c2c(F)ccc(F)c2/C1=C/c1cccc(C(F)(F)F)c1 [E13, (E)-2-(4,7-Difluoro-2-methyl-1-(3-(trifluoromethyl)benzylidene)-1H-inden-3-yl)-acetic acid] | < 30% | ≥ 50% | ≥ 50% | < 30% | < 30% | < 30% | 30 to 50% | 30 to 50% | ≥ 50% | < 30% | ≥ 50% | ≥ 50% | < 30% | 30 to 50% | ≥ 50% | < 30% | < 30% | < 30% | < 30% | < 30% | inhibition at 10 µM (SW480 (colon cancer)): < 30%; inhibition at 30 µM (SW480 (colon cancer)): < 30%
C/C(=C1/C=C(CC(=O)O)c2ccccc21)c1ccc(F)cc1 [E14, (E)-2-(1-(1-(4-Fluorophenyl)ethylidene)-1H-inden-3-yl)acetic acid] | < 30% | < 30% | 30 to 50% | < 30% | < 30% | < 30% | 30 to 50% | 30 to 50% | ≥ 50% | < 30% | < 30% | 30 to 50% | < 30% | < 30% | < 30% | < 30% | 30 to 50% | 30 to 50% | 30 to 50% | < 30% | inhibition at 10 µM (SW480 (colon cancer)): < 30%; inhibition at 30 µM (SW480 (colon cancer)): 30 to 50%
CC1=C(CC(=O)O)c2c(F)ccc(F)c2/C1=C/c1ccc(C(F)(F)F)cc1 [E15, (E)-2-(4,7-Difluoro-2-methyl-1-(4-(trifluoromethyl)benzylidene)-1H-inden-3-yl)-acetic acid] | < 30% | < 30% | ≥ 50% | < 30% | < 30% | < 30% | < 30% | 30 to 50% | ≥ 50% | < 30% | < 30% | ≥ 50% | < 30% | < 30% | ≥ 50% | < 30% | ≥ 50% | ≥ 50% | ≥ 50% | < 30% | inhibition at 10 µM (SW480 (colon cancer)): < 30%; inhibition at 30 µM (SW480 (colon cancer)): < 30%
CC1=C(CC(=O)O)c2cc(F)ccc2/C1=C/c1cccc(Oc2cccc(C(F)(F)F)c2)c1 [E16, (E)-2-(5-Fluoro-2-methyl-1-(3-(3-(trifluoromethyl)phenoxy)benzylidene)-1H-inden-3-yl)acetic acid] | 30 to 50% | 30 to 50% | ≥ 50% | < 30% | 30 to 50% | ≥ 50% | ≥ 50% | ≥ 50% | ≥ 50% | < 30% | < 30% | ≥ 50% | < 30% | < 30% | ≥ 50% | > 80% | 30 to 50% | 30 to 50% | ≥ 50% | < 30% | inhibition at 10 µM (SW480 (colon cancer)): < 30%; inhibition at 30 µM (SW480 (colon cancer)): ≥ 50%
